For series [1], the target named is T1, MSP142 (Plasmodium falciparum, UniProt Q8I0U8). The series can be described thus: P. falciparum MSP1 secondary processing assay (merozoites, Western blot). It counts as biochemical. The following applies: 1 mM, 1 h at 37° C. Set-up: Merozoites were purified as described previously; endogenous in cells; host or cells: purified P. falciparum merozoites released from mature schizonts. The protocol:
Merozoites were purified as described previously (Blackman 1994 Methods Cell Biol. 45, 213-220) after release from mature schizonts into growth medium supplemented with 2 mM EGTA. Merozoites were harvested by centrifugation, followed by sequential passage through pre-wetted filters of 3 and 1.2 μm pore size. Merozoites were washed in Ca^2+- and Mg^2+-free PBS in the presence of protease inhibitors (leupeptin, antipain and aprotinin at 10 μg ml^−1). The merozoites were then washed and resuspended in 50 mM Tris-HCl pH 7.2, 5 mM CaCl2, 1 mM MgCl2, plus leupeptin, antipain and aprotinin at 10 μg ml^−1 (processing buffer), and divided into 18 μl aliquots. Two microlitres of either diluted compound or reaction buffer were added and the samples incubated for 1 h at 37° C. Control assays included those in which processing was prevented by immediate addition of either SDS, 1 mM PMSF or 5 mM EGTA; and those in the absence of compound or in the presence of 0.2 mM TLCK (tosyl-L-lysyl chloromethyl ketone). After 1 h the reaction was stopped, and MSP1 processing was analysed using a Western blot-based assay (Blackman 1994 Methods Cell Biol. 45, 213-220). The blots were probed with a rabbit anti-MSP133/MSP142 antibody and the bands corresponding to MSP142 and MSP133 polypeptides were visualised by enhanced chemiluminescence.
Purified merozoites were incubated in the presence or absence of suramin or NTS and polypeptides subjected to SDS-PAGE and Western blotting.
Target sequence in this assay (Q8I0U8 20-1326): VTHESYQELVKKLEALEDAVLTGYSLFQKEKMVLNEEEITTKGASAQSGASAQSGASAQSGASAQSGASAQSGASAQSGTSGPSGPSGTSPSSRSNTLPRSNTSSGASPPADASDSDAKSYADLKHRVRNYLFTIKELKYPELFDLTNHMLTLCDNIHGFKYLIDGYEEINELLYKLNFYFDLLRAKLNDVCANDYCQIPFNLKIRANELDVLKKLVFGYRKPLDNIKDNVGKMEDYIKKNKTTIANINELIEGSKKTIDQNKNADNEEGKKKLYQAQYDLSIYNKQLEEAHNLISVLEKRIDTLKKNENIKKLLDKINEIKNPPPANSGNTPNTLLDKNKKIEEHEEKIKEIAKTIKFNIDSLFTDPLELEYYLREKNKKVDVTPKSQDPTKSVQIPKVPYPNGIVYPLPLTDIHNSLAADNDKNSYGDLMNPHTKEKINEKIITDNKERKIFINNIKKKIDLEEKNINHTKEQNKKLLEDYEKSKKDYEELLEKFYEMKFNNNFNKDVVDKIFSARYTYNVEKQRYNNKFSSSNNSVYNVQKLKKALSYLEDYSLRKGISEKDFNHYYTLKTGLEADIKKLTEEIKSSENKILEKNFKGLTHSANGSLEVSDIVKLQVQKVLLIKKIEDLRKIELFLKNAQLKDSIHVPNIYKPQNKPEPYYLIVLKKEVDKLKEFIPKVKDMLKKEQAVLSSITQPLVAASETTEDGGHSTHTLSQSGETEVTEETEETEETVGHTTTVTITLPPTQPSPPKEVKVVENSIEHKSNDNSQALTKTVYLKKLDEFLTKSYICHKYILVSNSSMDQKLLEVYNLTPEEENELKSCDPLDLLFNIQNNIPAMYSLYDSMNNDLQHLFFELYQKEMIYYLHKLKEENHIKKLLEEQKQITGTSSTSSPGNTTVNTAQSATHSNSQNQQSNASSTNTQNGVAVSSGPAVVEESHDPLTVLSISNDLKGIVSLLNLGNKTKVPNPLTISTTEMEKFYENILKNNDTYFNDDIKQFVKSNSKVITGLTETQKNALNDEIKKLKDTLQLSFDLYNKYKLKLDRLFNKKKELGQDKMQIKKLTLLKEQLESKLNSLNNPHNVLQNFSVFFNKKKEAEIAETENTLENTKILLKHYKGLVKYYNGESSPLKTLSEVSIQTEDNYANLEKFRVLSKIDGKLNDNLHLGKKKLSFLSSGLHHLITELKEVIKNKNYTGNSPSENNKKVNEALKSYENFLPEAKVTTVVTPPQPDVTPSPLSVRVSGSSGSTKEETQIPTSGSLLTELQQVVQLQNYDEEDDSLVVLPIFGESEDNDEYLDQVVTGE
Target sequence in this assay (Q8I0U8 1327-1699): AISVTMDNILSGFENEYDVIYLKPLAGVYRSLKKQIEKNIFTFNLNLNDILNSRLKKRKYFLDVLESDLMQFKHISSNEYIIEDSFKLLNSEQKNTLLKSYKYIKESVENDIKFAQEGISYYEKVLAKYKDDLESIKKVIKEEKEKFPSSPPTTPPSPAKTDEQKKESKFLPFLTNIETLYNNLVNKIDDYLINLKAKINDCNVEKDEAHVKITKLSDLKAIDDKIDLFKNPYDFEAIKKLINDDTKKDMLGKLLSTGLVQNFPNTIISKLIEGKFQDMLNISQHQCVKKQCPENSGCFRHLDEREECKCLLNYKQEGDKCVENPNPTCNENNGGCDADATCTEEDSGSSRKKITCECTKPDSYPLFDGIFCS
In general terms: A western blot detects proteins with antibodies after separation by electrophoresis.

The test system of the next series is P. falciparum (FCB-1). Put plainly: growth inhibition assay by [3H] hypoxanthine uptake. It counts as cell-based, Plasmodium falciparum. The following applies: 200 μM. The protocol: Asexual blood stages of P. falciparum (FCB-1) were maintained at 37° C. in RPMI 1640/Albumax medium (Gibco) supplemented with 2 mM L-glutamine as previously described (Blackman, 1994 Methods Cell Biol. 45, 213-220). Cultures were gassed with 7% CO2, 5% O2 and 88% N2 and maintained by routine passage in fresh human erythrocytes. Parasites were synchronised by Percoll and sorbitol treatment (Holder & Freeman, 1982 J. Exp. Med. 156, 1528-1538); schizonts were purified by centrifugation over Percoll and then returned to culture in the presence of fresh erythrocytes. After 4 h, during which time released merozoites invaded erythrocytes, the cells were treated with 5% sorbitol for 10 min to lyse the residual schizonts, before returning the parasites to culture.
Suramin and NTS were also assayed for P. falciparum growth inhibition using [^3H] hypoxanthine uptake (generally as described by Desjardins et al, 1979 Antimicrob. Agents Chemother. 16, 710-718). Serial dilutions of the compounds in 96-well plates were incubated at 37° C. with purified mature schizonts at a final parasitaemia of ^˜0.5% and a haematrocrit of ^˜2% in triplicate cultures. […] The filters were wetted with scintillation cocktail and the bound radioactivity counted in a β-counter. […] The amount of radioactivity in each sample was expressed as a percentage of activity in the control wells containing no compound. […]

Series [2] addresses T1, MSP142. Put plainly: inhibition of suramin binding (fluorescence, 384-well plate). Conditions: 10 μM analogue, 2 μM suramin, 0.1 mg/ml MSP142. The protocol: MSP142 (0.1 mg/ml), 10 μM suramin analogue and 2 μM suramin were combined in a 384-well black polypropylene low binding plate (total reaction volume 100 μL). Fluorescence was read at λex 320 nm/λem 405 nm on a BMG Polarstar fluorimeter. Readings were taken before, and 1 hour after, addition of suramin.
Target sequence in this assay (Q8I0U8 1327-1699): as above

Series [3] can be described thus: titration of fluorescent analogues in PBS buffer only. Type of series: physicochemical. The following applies: 0.01-200 μM. The protocol:
Analogues 258, 261, 264 and 266 were titrated against (a) PBS buffer only, (b) 0.1 mg/ml bovine serum albumin in PBS or (c) 0.1 mg/ml MSP142 in PBS. Fluorescence observed was compared to naphthalenetrisulphate (non-specific reagent) and suramin.

In the case of `O=S(=O)(F)Cc1ccccc1` [PMSF], at MSP142 [1], the “inhibition of MSP142 secondary processing” value is “absence of MSP133”.
Consider `O=S(=O)(O)c1ccc2c(S(=O)(=O)O)cc(S(=O)(=O)O)cc2c1` [NTS, Naphthalene-1,3,6-trisulphonic acid], for which, in the series with P. falciparum (FCB-1), the “inhibition of invasion at the highest concentration tested” value was “did not inhibit invasion”. Besides, the “effect on the fluorescent signal of suramin / own fluorescence” value on MSP142 [2] is “most fluorescent compound tested”. The “fluorescence in buffer alone” value in series [3] is “fluorescent in buffer alone”.
